Experimental data published in patent publication US7792665B2, “Method for designing a compound based on the three dimensional structure of phosphoinositide dependent protein kinase 1 (PDK1)” (Medical Research Council, priority 2002, dated 2010).
Changes are numbered by the printed parent chain. Where a SMILES comes first, the peptide text is derived from it. [ ]: non-standard residue; d: D form. pT = C[C@@H](OP(=O)(O)O)[C@H](N)C(=O)O

Tests used:
wild type PDK1 [1] = target: T1, wild type PDK1 (Homo sapiens, UniProt O15530); test: PDK1 catalytic activity towards T308tide, activation by peptides, wild type PDK1; assay type: biochemical; design: made in house; details: T308tide substrate
T1 sequence (O15530 1-556): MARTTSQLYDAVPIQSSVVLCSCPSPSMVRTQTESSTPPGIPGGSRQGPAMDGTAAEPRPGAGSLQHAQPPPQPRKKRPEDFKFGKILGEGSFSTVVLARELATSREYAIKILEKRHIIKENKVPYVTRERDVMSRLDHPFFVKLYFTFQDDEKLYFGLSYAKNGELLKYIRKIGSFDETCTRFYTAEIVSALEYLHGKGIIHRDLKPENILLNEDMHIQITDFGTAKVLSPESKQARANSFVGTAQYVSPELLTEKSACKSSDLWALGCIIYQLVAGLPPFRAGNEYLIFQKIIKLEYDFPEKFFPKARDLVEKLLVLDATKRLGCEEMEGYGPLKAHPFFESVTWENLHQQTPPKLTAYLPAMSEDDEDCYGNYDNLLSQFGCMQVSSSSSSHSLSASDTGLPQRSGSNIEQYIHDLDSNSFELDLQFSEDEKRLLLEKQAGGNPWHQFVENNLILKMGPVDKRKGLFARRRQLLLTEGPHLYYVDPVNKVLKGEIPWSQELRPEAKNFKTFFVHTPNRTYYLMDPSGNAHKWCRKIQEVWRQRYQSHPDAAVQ
Procedure: (§1) C. Activation of the indicated forms of PDK1 by 56K-pHM and S6K-HM. PDK1 activity was measured using the peptide substrate (T308tide) in the presence of the indicated concentrations of 56K-pHM (closed circles) and S6K-HM (open circles) as described in the methods. Assays were performed in triplicate and similar results obtained in 2 separate experiments. The results are the average—SD for a single experiment.
(§2) The ability of wild type and mutant PDK1 to phosphorylate the synthetic peptide T308tide ([…] ([Biondi et al., 2000]) (SEQ ID NO:108) was carried out in 30 μl assays containing 100 ng of wild type or mutant PDK1, 50 mM Tris/HCl pH 7.5, 0.1% 13-mercaptoethanol, 10 mM MgCl2, 100 μM [32γ P]ATP (200 cpm/pmol), 0.5 μM microcystin-LR, 1 mM T308tide in the presence or absence of the indicated concentrations of the 56K-pHM peptide ([…](P)YVAPSV) (SEQ ID NO:104) or 56K-HM. peptide ([…]) (SEQ ID NO:105). After incubation for 10 min at 30° C., 25 μl of the resultant mixture was spotted into P81 phosphocellulose paper (2×2 cm) and the papers washed and analysed as described previously for assays of MAP kinase. Control assays were carried out in parallel in which either PDK1, or peptide substrate were omitted; these values were always less than 5% of the activity measured in the presence of these reagents. […]

PDK1[K76A] = target: T2, PDK1[K76A] (Homo sapiens, UniProt O15530, K76A); test: PDK1 catalytic activity towards T308tide, activation by peptides, PDK1[K76A]; assay type: biochemical; details: T308tide substrate
T2 construct: made in house; host or cells: human embryonic kidney 293 cells (pEBG2T vector)
T2 sequence (O15530 1-556 K76A): T1 sequence (O15530 1-556) with K76A
Procedure: as §1, §2

wild type PDK1 [2] = target: T1, wild type PDK1; test: Surface plasmon resonance (BiaCore) binding of hydrophobic motif peptides, wild type PDK1; design: made in house; host or cells: human embryonic kidney 293 cells (pEBG2T vector); details: BiaCore
Procedure: Binding and activation of wild type and mutant forms of PDK1 to a phosphopeptide derived from the hydrophobic motif of S6K1. The binding of the wild type (wt) PDK1 and indicated mutants to a phosphopeptide comprising the hydrophobic motif of S6K1 (S6K-pHM: […]*YVAPSV, where T* indicates phospho-threonine, SEQ ID NO:104) was analysed by surface plasmon resonance as described in the Materials and Methods.
A. The sensor chip SA was coated with 12RUs of the biotinylated S6K-pHM peptide and the binding was analysed following injection of 270 nM wild type PDK1, PDK1 [T148A] and PDK1 [K76A]. […] (data not shown).
B. As in A. except that binding was analysed over a range of PDK1 concentrations (2-2150 nM). The response level at the steady state binding is plotted versus the log of the PDK1 concentration. The estimated Kd was obtained by fitting the data to a sigmoid curve using Kaleidagraph software.
Binding was analysed in a BiaCore 3000 system (BiaCore AB, Stevenage, UK). Biotinylated S6K-pHM (Biotin-C12-[…](P)YVAPSV) (SEQ ID NO:104) or the non-phosphorylated form of this peptide S6K-HM was bound to an streptavidin-coated Sensor chip (SA) (12 response units, RU). 30 μl of wild type or the indicated mutant GST-PDK1 were injected at a flow rate of 30 μl/min, in buffer HBS-P (10 mM HEPES pH 7.4, 0.15M NaCl, 0.005% (by vol) polysorbate-20) supplemented with 1 mM DTT. Specific interactions between 56K-pHM and PDK1 proteins were obtained between the concentration range of 2-2150 nM PDK1. Steady state binding was determined at each concentration. Dissociation of PDK1 from the phospho-peptide was monitored over a 1 min period. Regeneration of the sensor chip surface was performed with 1{tilde over (0)} μl injections of 0.05% SDS. […] (RUmax=435). For all PDK1 construct tested, the off rates for S6Kp-HM were high in comparison to those of PIFtide binding with the time taken for 50% dissociation to occur for 56K-pHM is 30s compared to 1000s for PIFtide.

## CC(C)C[C@H](NC(=O)[C@H](Cc1ccccc1)NC(=O)[C@@H](NC(=O)[C@H](CCC(N)=O)NC(=O)[C@H](CC(N)=O)NC(=O)[C@H](C)NC(=O)[C@H](CO)NC(=O)[C@H](CCC(=O)O)NC(=O)[C@@H](N)CO)C(C)C)C(=O)NCC(=O)N[C@@H](Cc1ccccc1)C(=O)N[C@H](C(=O)N[C@@H](Cc1ccc(O)cc1)C(=O)N[C@H](C(=O)N[C@@H](C)C(=O)N1CCC[C@H]1C(=O)N[C@@H](CO)C(=O)N[C@H](C(=O)O)C(C)C)C(C)C)[C@@H](C)OP(=O)(O)O [S6K-pHM] (H-SESANQVFLGF[pT]YVAPSV-OH; N-terminus and C-terminus assumed)
Wild type PDK1 [1]
  maximal activation of PDK1: 5 fold
PDK1[K76A]
  higher concentration required to half maximally activate PDK1[K76A] than wild type: approximately 3 fold
Wild type PDK1 [2]; all PDK1 constructs tested
  time taken for 50% dissociation of PDK1 from peptide: 30 s
Wild type PDK1 [2]; overall
  lower affinity of wild type PDK1 for peptide in comparison to PIFtide: approximately 100 fold
